Data taken from patent publication US10647713B2 (Nimbus Lakshmi, Inc., priority 2016, dated 2020).

Biological target: human TYK2 (JH2domain-pseudokinase) (Homo sapiens (Human), UniProt P29597)
Assay: TYK2 JH2 Domain Binding Assay (KINOMEscan, DiscoveRx)
Settings: 11-point dilution, duplicate
Method in brief: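 TYK2 JH2 (G556–D888)–NFkB DBD fusion, DNA-tagged, from HEK293 extracts (<0.1 nM) competed against immobilised biotinylated ligand for 1 h at room temperature, 0.9% DMSO. Bead-retained kinase quantified by qPCR; Kd from 11-point 3-fold series (top 30,000 nM, duplicate), Hill fit with slope −1.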

human TYK2 (JH2domain-pseudokinase), sequence (P29597 556-888): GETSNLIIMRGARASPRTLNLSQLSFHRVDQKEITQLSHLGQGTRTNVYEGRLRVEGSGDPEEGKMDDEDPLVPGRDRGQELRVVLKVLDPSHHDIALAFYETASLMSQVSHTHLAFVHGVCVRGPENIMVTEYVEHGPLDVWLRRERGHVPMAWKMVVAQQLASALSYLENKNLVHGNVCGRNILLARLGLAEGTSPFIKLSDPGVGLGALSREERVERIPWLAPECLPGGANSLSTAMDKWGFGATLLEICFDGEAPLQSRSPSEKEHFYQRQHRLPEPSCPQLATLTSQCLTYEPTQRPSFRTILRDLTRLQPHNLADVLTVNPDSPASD

Row | SMILES | Kd
1 | Cc1nc2c(Nc3ccc(-c4cncn4C)cc3S(C)(=O)=O)cc(NC(=O)[C@H]3C[C@H]3F)nc2[nH]1 [I-261, (1R,2R)-2-fluoro-N-(2-methyl-7-((4-(1-methyl-1H-imidazol-5-yl)-2-(methylsulfonyl)phenyl)amino)-3H-imidazo[4,5-b]pyridin-5-yl)cyclopropane-1-carboxamide] | 0.1 to 0.5 nM
2 | Cc1nc2c(Nc3ccc(-c4nn(C)cc4C)cc3S(C)(=O)=O)cc(NC(=O)[C@@H]3C[C@@H]3F)nc2[nH]1 [I-262, (1S,2S)—N-(7-((4-(1,4-dimethyl-1H-pyrazol-3-yl)-2-(methylsulfonyl)phenyl)amino)-2-methyl-3H-imidazo[4,5-b]pyridin-5-yl)-2-fluorocyclopropane-1-carboxamide] | 0.1 to 0.5 nM
3 | Cc1nc2c(Nc3ccc(-c4nn(C)cc4C)cc3S(C)(=O)=O)cc(NC(=O)[C@H]3C[C@H]3F)nc2[nH]1 [I-263, (1R,2R)—N-(7-((4-(1,4-dimethyl-1H-pyrazol-3-yl)-2-(methylsulfonyl)phenyl)amino)-2-methyl-3H-imidazo[4,5-b]pyridin-5-yl)-2-fluorocyclopropane-1-carboxamide] | < 0.1 nM
4 | Cc1nc2c(Nc3ccc(-c4cnn(C)c4C)cc3S(C)(=O)=O)cc(NC(=O)C3CC3)nc2[nH]1 [I-265, N-(7-((4-(1,5-dimethyl-1H-pyrazol-4-yl)-2-(methylsulfonyl)phenyl)amino)-2-methyl-3H-imidazo[4,5-b]pyridin-5-yl)cyclopropanecarboxamide] | < 0.1 nM
5 | COc1c(Nc2cc(NC(=O)[C@@H]3C[C@@H]3F)nc3[nH]c(C)nc23)cccc1-c1ncn(C)n1 [I-266, (1S,2S)-2-fluoro-N-(7-((2-methoxy-3-(1-methyl-1H-1,2,4-triazol-3-yl)phenyl)amino)-2-methyl-3H-imidazo[4,5-b]pyridin-5-yl)cyclopropane-1-carboxamide] | 0.5 to 1 nM
6 | COc1c(Nc2cc(NC(=O)[C@H]3C[C@H]3F)nc3[nH]c(C)nc23)cccc1-c1ncn(C)n1 [I-267, (1R,2R)-2-fluoro-N-(7-((2-methoxy-3-(1-methyl-1H-1,2,4-triazol-3-yl)phenyl)amino)-2-methyl-3H-imidazo[4,5-b]pyridin-5-yl)cyclopropane-1-carboxamide] | 1 to 10 nM
7 | Cc1nc2c(Nc3ccc(-c4cnn(C)c4)cc3N(C)S(C)(=O)=O)cc(NC(=O)[C@@H]3C[C@@H]3F)nc2[nH]1 [I-268, (1S,2S)-2-fluoro-N-(2-methyl-7-((4-(1-methyl-1H-pyrazol-4-yl)-2-(N-methylmethylsulfonamido)phenyl)amino)-3H-imidazo[4,5-b]pyridin-5-yl)cyclopropane-1-carboxamide] | 0.1 to 0.5 nM
8 | Cc1nc2c(Nc3ccc(-c4cnn(C)c4)cc3N(C)S(C)(=O)=O)cc(NC(=O)[C@H]3C[C@H]3F)nc2[nH]1 [I-269, (1R,2R)-2-fluoro-N-(2-methyl-7-((4-(1-methyl-1H-pyrazol-4-yl)-2-(N-methylmethylsulfonamido)phenyl)amino)-3H-imidazo[4,5-b]pyridin-5-yl)cyclopropane-1-carboxamide] | 0.1 to 0.5 nM
9 | CN(c1cc(-c2cncn2C)ccc1Nc1cc(NC(=O)[C@@H]2CC2(F)F)nc2[nH]c(C(F)F)nc12)S(C)(=O)=O [I-270, (S)—N-(2-(difluoromethyl)-7-((4-(1-methyl-1H-imidazol-5-yl)-2-(N-methylmethylsulfonamido)phenyl)amino)-3H-imidazo[4,5-b]pyridin-5-yl)-2,2-difluorocyclopropane-1-carboxamide] | 0.1 to 0.5 nM
10 | CN(c1cc(-c2cncn2C)ccc1Nc1cc(NC(=O)[C@H]2CC2(F)F)nc2[nH]c(C(F)F)nc12)S(C)(=O)=O [I-271, (R)—N-(2-(difluoromethyl)-7-((4-(1-methyl-1H-imidazol-5-yl)-2-(N-methylmethylsulfonamido)phenyl)amino)-3H-imidazo[4,5-b]pyridin-5-yl)-2,2-difluorocyclopropane-1-carboxamide] | 1 to 10 nM
11 | CS(=O)(=O)c1cc(C2CC2)ccc1Nc1cc(Nc2cccc(C(F)(F)F)n2)nc2[nH]c(C(F)F)nc12 [I-272] | 1 to 10 nM
12 | Cc1nc2c(Nc3ccc(C4CC4)cc3S(C)(=O)=O)cc(Nc3cccc(C(F)(F)F)n3)nc2[nH]1 [I-273] | 0.5 to 1 nM
13 | Cc1nc2c(Nc3ccc(-c4cncn4C)cc3N(C)S(C)(=O)=O)cc(NC(=O)[C@@H]3CC3(F)F)nc2[nH]1 [I-274, (S)-2,2-difluoro-N-(2-methyl-7-((4-(1-methyl-1H-imidazol-5-yl)-2-(N-methylmethylsulfonamido)phenyl)amino)-3H-imidazo[4,5-b]pyridin-5-yl)cyclopropane-1-carboxamide] | 0.1 to 0.5 nM
14 | Cc1nc2c(Nc3ccc(-c4cncn4C)cc3N(C)S(C)(=O)=O)cc(NC(=O)[C@H]3CC3(F)F)nc2[nH]1 [I-275, (R)-2,2-difluoro-N-(2-methyl-7-((4-(1-methyl-1H-imidazol-5-yl)-2-(N-methylmethylsulfonamido)phenyl)amino)-3H-imidazo[4,5-b]pyridin-5-yl)cyclopropane-1-carboxamide] | 1 to 10 nM
15 | Cc1cc(-c2ccc(Nc3cc(Nc4cccc(C#N)n4)nc4[nH]c(C(F)F)nc34)c(S(C)(=O)=O)c2)nn1C [I-277] | 0.1 to 0.5 nM
16 | Cc1nc2c(Nc3ccc([C@@H]4CCCCO4)cc3S(C)(=O)=O)cc(NC(=O)[C@H]3CC3(F)F)nc2[nH]1 [I-278, (R)-2,2-difluoro-N-(2-methyl-7-((2-(methylsulfonyl)-4-((S)-tetrahydro-2H-pyran-2-yl)phenyl)amino)-3H-imidazo[4,5-b]pyridin-5-yl)cyclopropane-1-carboxamide] | 0.1 to 0.5 nM
17 | Cc1nc2c(Nc3ccc([C@@H]4CCCCO4)cc3S(C)(=O)=O)cc(NC(=O)[C@@H]3CC3(F)F)nc2[nH]1 [I-279, (S)-2,2-difluoro-N-(2-methyl-7-((2-(methylsulfonyl)-4-((S)-tetrahydro-2H-pyran-2-yl)phenyl)amino)-3H-imidazo[4,5-b]pyridin-5-yl)cyclopropane-1-carboxamide] | 1 to 10 nM
18 | CS(=O)(=O)c1cc([C@H]2CCCCO2)ccc1Nc1cc(NC(=O)[C@H]2CC2(F)F)nc2[nH]c(C(F)F)nc12 [I-280, (R)—N-(2-(difluoromethyl)-7-((2-(methylsulfonyl)-4-((R)-tetrahydro-2H-pyran-2-yl)phenyl)amino)-3H-imidazo[4,5-b]pyridin-5-yl)-2,2-difluorocyclopropane-1-carboxamide] | 0.5 to 1 nM
19 | CS(=O)(=O)c1cc([C@H]2CCCCO2)ccc1Nc1cc(NC(=O)[C@@H]2CC2(F)F)nc2[nH]c(C(F)F)nc12 [I-281, (S)—N-(2-(difluoromethyl)-7-((2-(methylsulfonyl)-4-((R)-tetrahydro-2H-pyran-2-yl)phenyl)amino)-3H-imidazo[4,5-b]pyridin-5-yl)-2,2-difluorocyclopropane-1-carboxamide] | 1 to 10 nM
20 | Cc1nc2c(Nc3ccc(C4=NC(C)(C)CO4)cc3S(C)(=O)=O)cc(NC(=O)[C@@H]3C[C@@H]3F)nc2[nH]1 [I-282, (1S,2S)—N-(7-((4-(4,4-dimethyl-4,5-dihydrooxazol-2-yl)-2-(methylsulfonyl)phenyl)amino)-2-methyl-3H-imidazo[4,5-b]pyridin-5-yl)-2-fluorocyclopropane-1-carboxamide] | 1 to 10 nM
21 | CC1(C)CN=C(c2ccc(Nc3cc(NC(=O)C4CC4)nc4[nH]c(C(F)F)nc34)c(S(C)(=O)=O)c2)O1 [I-283, N-(2-(difluoromethyl)-7-((4-(5,5-dimethyl-4,5-dihydrooxazol-2-yl)-2-(methylsulfonyl)phenyl)amino)-3H-imidazo[4,5-b]pyridin-5-yl)cyclopropanecarboxamide] | 1 to 10 nM
